One experiment has as its system VERO cell. The experiment can be described thus: VERO cell cytotoxicity assay. The format is cell-based. Particulars: Chlorocebus sabaeus, 72 hours exposure, Cell Titer Glo viability.
Experiment [1] concerns Mycobacterium tuberculosis H37Rv (ATCC 27294). In words: Microplate Alamar Blue Assay (MABA). The class given is cell-based. As to conditions: M. tuberculosis H37Rv, BACTEC 12B medium, pH 6.8, concentration effecting 90% reduction in fluorescence relative to controls. The method, then: A series of in vitro tests were carried out to determine the properties of known compounds alongside a rhenium derivative of an in vivo imaging agent of the present invention. These tests were the Microplate Alamar Blue Assay (MABA) (Franzblau S et al., J Clin Microbiol 1998, 36, 362-366), the Low Oxygen Recovery Assay (LORA) (Cho et al., Antimicro Agents Chemother 2007, 51, 1380-1385), and the VERO cell cytotoxicity assay to determine IC 50 (Cory A H et al., Cancer Commun 1991, 3, 207-12).
The initial screen was conducted against Mycobacterium tuberculosis H37Rv (ATCC 27294) in BACTEC 12B medium using the Microplate Alamar Blue Assay (MABA). Compounds were tested in ten 2-fold dilutions, typically from 100 μg/mL to 0.19 μg/mL at pH 6.8. The MIC90 is defined as the concentration effecting a reduction in fluorescence of 90% relative to controls. This value was determined from the dose-response curve using a curve-fitting program.
On the technique in general: Resazurin is reduced to fluorescent resorufin, in cell work by metabolically active cells.

≈ marks a conversion by molar mass, not a printed value.

As usually defined, the IC50 is the point on the concentration scale where inhibition reaches its midpoint. As usually defined, the MIC is the lowest concentration that inhibits growth of the organism. In the experiment with VERO cell, `COc1ccc(CSCCNCCN(CCCN)CCSCc2ccc(OC)cc2)cc1` [Chelate alone] had a half-maximal inhibitory concentration (IC50) of over 50 µg/mL. The MIC in experiment [1] amounted to 1.49 µg/mL (≈ 3.12 µM).
Taken in the same sequence, the figures for `COc1ccc(CSCCNCCN(CCCNC(=O)c2cnccn2)CCSCc2ccc(OC)cc2)cc1` [PZA + Chelate] were 36.8 µg/mL and 10.4 µg/mL.
In experiment [1], `NC(=O)c1cnccn1` [Standard drug, Pyrazinamide] came in with an MIC of over 100 µg/mL.
